# Results: PMC9609767, “Radiosynthesis and Preclinical Evaluation of an ^18F-Labeled Triazolopyridopyrazine-Based Inhibitor for Neuroimaging of the Phosphodiesterase 2A (PDE2A)” (Pharmaceuticals, 2022)
# Values joined by “and” are separate entries in the source; they are usually repeats but may differ in a detail not shown here. Equal values may be shown once. Read-outs that look alike come from different tables or passages of the source.
# What was measured:
# [1] = logD by shake flask method (n-octanol/PBS); format: physicochemical; details: n-octanol/phosphate-buffered saline, n = 4
# Description: In order to estimate the lipophilicity of [^18F]11, the partition coefficient was determined by the shake flask method using n-octanol and phosphate-buffered saline as partition system. […] The chemical stability of the radiotracer was investigated by incubation in phosphate-buffered saline (PBS) and n-octanol at 30 °C.
# The determination of stability and logD value has been performed according to the procedures described by Sadeghzadeh and Wenzel et al..
# rat PDE2A = molecular target: T1, rat PDE2A (Rattus norvegicus, UniProt Q01062); test: In vitro autoradiography with rat brain cryosections; format: binding; details: for Kd: read-out: apparent KD
# T1 construct: Frozen sagittal 12 µm brain sections obtained from female SPRD and male Wistar-Han rats; from tissue; host or cells: rat brain cryosections (female SPRD and male Wistar-Han rats)
# T1 sequence (Q01062 1-928): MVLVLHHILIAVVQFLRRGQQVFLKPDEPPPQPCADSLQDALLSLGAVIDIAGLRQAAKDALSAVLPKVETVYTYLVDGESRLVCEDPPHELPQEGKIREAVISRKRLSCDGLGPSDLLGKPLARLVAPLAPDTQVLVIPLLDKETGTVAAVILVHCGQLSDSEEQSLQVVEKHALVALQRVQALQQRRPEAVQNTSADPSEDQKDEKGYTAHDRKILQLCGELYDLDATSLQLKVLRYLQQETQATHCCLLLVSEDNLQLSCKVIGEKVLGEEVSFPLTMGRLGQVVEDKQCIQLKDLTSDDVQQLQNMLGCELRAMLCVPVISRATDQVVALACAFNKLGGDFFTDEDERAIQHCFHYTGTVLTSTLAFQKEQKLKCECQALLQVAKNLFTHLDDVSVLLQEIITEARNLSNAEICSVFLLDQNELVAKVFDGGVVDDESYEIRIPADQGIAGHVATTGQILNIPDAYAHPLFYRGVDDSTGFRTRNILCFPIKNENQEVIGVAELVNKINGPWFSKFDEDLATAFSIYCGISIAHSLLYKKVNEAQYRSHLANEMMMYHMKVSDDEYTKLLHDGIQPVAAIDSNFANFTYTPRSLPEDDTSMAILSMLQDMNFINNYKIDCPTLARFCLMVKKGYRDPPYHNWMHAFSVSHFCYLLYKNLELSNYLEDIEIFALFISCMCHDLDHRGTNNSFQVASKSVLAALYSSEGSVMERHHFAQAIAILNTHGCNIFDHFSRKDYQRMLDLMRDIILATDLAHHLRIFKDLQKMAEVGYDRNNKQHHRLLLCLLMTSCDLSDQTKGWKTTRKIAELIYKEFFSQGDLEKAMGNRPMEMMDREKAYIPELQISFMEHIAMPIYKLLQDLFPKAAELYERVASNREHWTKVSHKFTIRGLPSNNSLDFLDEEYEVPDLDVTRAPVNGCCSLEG
# Description: Frozen sagittal 12 µm brain sections obtained from female SPRD and male Wistar-Han rats (10–12 weeks old) were thawed, dried in a stream of cold air, and pre-incubated for 15 min with incubation buffer (50 mM TRIS-HCl, pH 7.4; supplemented with 1 mM MgCl2, 1 mM CaCl2, 2 mM KCl, and 2 U/mL Adenosine deaminase) at ambient temperature. Afterwards, the buffer was decanted and the cryosections dried again in a stream of cold air before covering with the radioligand in incubation buffer (~0.1 MBq [^18F]11/mL; Am at the time of the incubation ~10 GBq/µmol) for incubation at ambient temperature for 90 min.
# The incubation was terminated by pouring off the incubation solution and washing the slides twice with ice-cold buffer (50 mM TRIS-HCl, pH 7.4/4 °C) for 2 min and rinsing by dipping in ice-cold demineralised water. Immediately afterwards, the sections were dried in a stream of cold air and exposed along with appropriate radioactive standards (1 µL of serial dilutions of the radioligand in incubation buffer, pipetted on a microscopic glass slide and air dried) to an ^18F-sensitive image plate for 120 min. Finally, the imaging plate was scanned at the highest possible resolution (pixel size 12.6 µm × 12.6 µm) in a phosphor imager (HD-CR 35; Duerr NDT GmbH, Bietigheim Bissingen, Germany) and the digital image analysed with an image analysis program (Aida Image Analyzer v. 4.26; Elysia-raytest GmbH, Straubenhardt, Germany).
# For the determination of the protein concentration, four dried 12 µm cryosections were scraped from the microscopic glass slides, transferred in an Eppendorf tube and solubilised with 200 µL of demineralised water. The protein concentration of this solution was determined by a commercial assay (Pierce™ BCA Protein Assay Kit, Thermo Fisher Scientific, Schwerte, Germany). The area of the cryosections was determined during the analysis of the digitized autoradiographic images, and the volume was calculated by multiplying the area with the thickness of the slices. Finally, the protein concentration of the tissue was calculated (37 mg protein/g wet weight).
# [2] = caudate putamen, female SPRD rat
# [3] = caudate putamen, male Wistar-Han rat
compound,measurement,setting,value
CCCC(O)c1ccc([18F])c(-c2nnc3c(C)nc4ccc(C5CC5)nc4n23)c1 (centres unmarked) [[^18F]11],logD,[1],1.79 ± 0.66
same,Kd,"rat PDE2A; caudate nucleus and putamen, homologous competition, overall value (SPRD and Wistar)",~0.2 nM and 0.24 nM
same,apparent Bmax,"rat PDE2A; caudate nucleus and putamen, overall value (SPRD and Wistar)",~20 pmol/mg protein and 16 pmol/mg protein
same,apparent Bmax,rat PDE2A; [2],14 pmol/mg protein
same,Kd,rat PDE2A; [2],0.38 nM
same,apparent Bmax,rat PDE2A; [3],18 pmol/mg protein
same,Kd,rat PDE2A; [3],0.1 nM
same,caudate putamen-to-cerebellum ratio,"rat PDE2A; in vitro autoradiography, equilibrium conditions",about 2
